Source: publication PMC6109596 (Cancer letters, 2018)

Target: ABCB1 (P-glycoprotein/MDR1) (Homo sapiens, UniProt P08183)
Assay: biochemical

Chain of ABCB1 (P-glycoprotein/MDR1) (P08183 whole entry): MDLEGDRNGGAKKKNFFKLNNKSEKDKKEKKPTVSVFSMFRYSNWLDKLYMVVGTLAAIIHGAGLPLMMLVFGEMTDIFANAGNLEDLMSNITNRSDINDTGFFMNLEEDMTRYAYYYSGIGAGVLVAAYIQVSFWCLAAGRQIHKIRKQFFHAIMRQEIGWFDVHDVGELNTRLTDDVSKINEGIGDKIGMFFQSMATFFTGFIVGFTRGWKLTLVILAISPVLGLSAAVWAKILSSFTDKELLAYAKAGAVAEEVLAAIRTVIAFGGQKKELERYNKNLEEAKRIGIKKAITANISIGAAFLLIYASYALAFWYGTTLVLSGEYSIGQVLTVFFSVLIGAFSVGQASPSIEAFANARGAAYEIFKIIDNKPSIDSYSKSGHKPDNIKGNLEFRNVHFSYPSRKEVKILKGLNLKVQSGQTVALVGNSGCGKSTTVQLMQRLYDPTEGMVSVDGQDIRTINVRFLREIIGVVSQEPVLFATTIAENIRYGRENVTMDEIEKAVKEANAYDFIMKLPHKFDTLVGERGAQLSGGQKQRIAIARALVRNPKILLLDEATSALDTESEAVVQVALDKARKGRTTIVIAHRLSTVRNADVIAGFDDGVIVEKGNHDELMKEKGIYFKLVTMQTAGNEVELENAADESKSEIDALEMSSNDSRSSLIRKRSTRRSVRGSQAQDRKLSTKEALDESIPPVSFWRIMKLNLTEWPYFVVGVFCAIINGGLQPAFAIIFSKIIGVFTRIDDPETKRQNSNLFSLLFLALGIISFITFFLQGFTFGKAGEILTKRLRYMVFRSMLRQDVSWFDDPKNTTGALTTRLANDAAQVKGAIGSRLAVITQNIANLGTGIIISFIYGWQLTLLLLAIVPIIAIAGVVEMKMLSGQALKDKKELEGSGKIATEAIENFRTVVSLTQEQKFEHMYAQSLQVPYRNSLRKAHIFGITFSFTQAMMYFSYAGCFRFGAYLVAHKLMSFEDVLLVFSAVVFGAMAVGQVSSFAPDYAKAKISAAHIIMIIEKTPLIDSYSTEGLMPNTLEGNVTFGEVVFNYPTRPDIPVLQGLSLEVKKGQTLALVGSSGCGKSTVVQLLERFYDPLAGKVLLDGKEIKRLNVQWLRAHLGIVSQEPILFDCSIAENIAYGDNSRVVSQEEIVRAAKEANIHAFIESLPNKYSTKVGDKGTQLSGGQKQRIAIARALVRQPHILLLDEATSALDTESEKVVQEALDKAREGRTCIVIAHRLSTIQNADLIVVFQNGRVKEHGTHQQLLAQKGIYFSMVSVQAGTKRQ

## N#Cc1cc2c(OCC(O)CN3CCN(C(c4ccccc4)c4ccccc4)CC3)cccc2[nH]1 (racemic) [DPI-201106]
  IC50: ~500 nM
